{
  "source": "patent US20240041877A1",
  "about": "“DOSAGE REGIME AND METHOD FOR TREATING PULMONARY ARTERIAL HYPERTENSION” (Altavant Sciences GmbH, priority 2019, published 2024)",
  "assay": "Part 2 (MAD): plasma pharmacokinetics after BID oral KAR5585 for 14 days (incl. accumulation ratios and dose proportionality)",
  "key": {"[1]": {"conditions": "KAR5585 100 mg BID fed, Cohort 2, Day 1 PM, mean"}, "[2]": {"conditions": "KAR5585 100 mg BID fed, Cohort 2, Day 7 AM, Day 7/Day 1 accumulation ratio, geo. mean"}, "[3]": {"conditions": "KAR5585 100 mg BID fed, Cohort 2, Day 7 AM, Day 7/Day 1 accumulation ratio, mean"}, "[4]": {"conditions": "KAR5585 100 mg BID fed, Cohort 2, Day 7 AM, geo. mean"}, "[5]": {"conditions": "KAR5585 100 mg BID fed, Cohort 2, Day 7 AM, mean"}, "[6]": {"conditions": "KAR5585 100 mg BID fed, Cohort 2, Day 7 PM, Day 7/Day 1 accumulation ratio, geo. mean"}, "[7]": {"conditions": "KAR5585 100 mg BID fed, Cohort 2, Day 7 PM, Day 7/Day 1 accumulation ratio, mean"}, "[8]": {"conditions": "KAR5585 100 mg BID fed, Cohort 2, Day 7 PM, geo. mean"}, "[9]": {"conditions": "KAR5585 100 mg BID fed, Cohort 2, Day 7 PM, mean"}, "[10]": {"conditions": "KAR5585 100 mg BID fed, Cohort 2, Day 14 AM, Day 14/Day 1 accumulation ratio, geo. mean"}, "[11]": {"conditions": "KAR5585 100 mg BID fed, Cohort 2, Day 14 AM, Day 14/Day 1 accumulation ratio, mean"}, "[12]": {"conditions": "KAR5585 100 mg BID fed, Cohort 2, Day 14 AM, geo. mean"}, "[13]": {"conditions": "KAR5585 100 mg BID fed, Cohort 2, Day 14 AM, mean"}, "[14]": {"conditions": "KAR5585 200 mg BID fed, Cohort 3, Day 1 AM, geo. mean"}, "[15]": {"conditions": "KAR5585 200 mg BID fed, Cohort 3, Day 1 AM, mean"}, "[16]": {"conditions": "KAR5585 200 mg BID fed, Cohort 3, Day 1 PM, geo. mean"}},
  "text": "Food effect was to be evaluated in Part 1, Period 2.\nPharmacokinetic data were to be summarized descriptively.",
  "data": [
    {"compound": "Nc1nc(O[C@H](c2ccc(Cl)cc2-c2ccccc2)C(F)(F)F)cc(N2CCC3(CC2)CN[C@H](C(=O)O)C3)n1", "note": "[KAR5417, (S)-8-(2-amino-6-((R)-1-(5-chloro-[1,1T-biphenyl]-2-yl)-2,2,2-trifluoroeth-oxy)pyrimidin-4-yl)-2,8-diazaspiro[4.5]decane-3-carboxylic acid]", "values": [
      {"measurement": "AUC0-∞", "setting": "[1]", "result": 1140, "unit": "ng·h/mL"},
      {"measurement": "C12", "setting": "[1]", "result": 43.1, "unit": "ng/mL"},
      {"measurement": "Cmax", "setting": "[1]", "result": 130, "unit": "ng/mL"},
      {"measurement": "Cmax/D", "setting": "[1]", "result": "1.3 (ng/ml)/mg"},
      {"measurement": "t1/2", "setting": "[1]", "result": 7.00, "unit": "h"},
      {"measurement": "RAUC0-12", "setting": "[2]", "result": 2.45},
      {"measurement": "RCmax", "setting": "[2]", "result": 2.02},
      {"measurement": "RAUC0-12", "setting": "[3]", "result": 2.57},
      {"measurement": "RCmax", "setting": "[3]", "result": 2.07},
      {"measurement": "AUC0-12", "setting": "[4]", "result": 1050, "unit": "ng·h/mL"},
      {"measurement": "AUC0-∞", "setting": "[4]", "result": 1380, "unit": "ng·h/mL"},
      {"measurement": "C12", "setting": "[4]", "result": 44.3, "unit": "ng/mL"},
      {"measurement": "Cmax/D", "setting": "[4]", "result": "1.60 (ng/ml)/mg"},
      {"measurement": "t1/2", "setting": "[4]", "result": 5.24, "unit": "h"},
      {"measurement": "AUC0-12", "setting": "[5]", "result": 1080, "unit": "ng·h/mL"},
      {"measurement": "AUC0-∞", "setting": "[5]", "result": 1410, "unit": "ng·h/mL"},
      {"measurement": "C12", "setting": "[5]", "result": 45.1, "unit": "ng/mL"},
      {"measurement": "Cmax", "setting": "[5]", "result": 168, "unit": "ng/mL"},
      {"measurement": "Cmax/D", "setting": "[5]", "result": "1.68 (ng/ml)/mg"},
      {"measurement": "t1/2", "setting": "[5]", "result": 5.31, "unit": "h"},
      {"measurement": "RAUC0-12", "setting": "[6]", "result": 2.04},
      {"measurement": "RCmax", "setting": "[6]", "result": 1.34},
      {"measurement": "RAUC0-12", "setting": "[7]", "result": 2.19},
      {"measurement": "RCmax", "setting": "[7]", "result": 1.43},
      {"measurement": "AUC0-12", "setting": "[8]", "result": 875, "unit": "ng·h/mL"},
      {"measurement": "AUC0-24", "setting": "[8]", "result": 1930, "unit": "ng·h/mL"},
      {"measurement": "AUC0-24/D", "setting": "[8]", "result": "9.64 (hr*ng/ml)/mg"},
      {"measurement": "AUC0-∞", "setting": "[8]", "result": 1700, "unit": "ng·h/mL"},
      {"measurement": "C12", "setting": "[8]", "result": 61.4, "unit": "ng/mL"},
      {"measurement": "Cmax", "setting": "[8]", "result": 106, "unit": "ng/mL"},
      {"measurement": "Cmax/D", "setting": "[8]", "result": "1.06 (ng/ml)/mg"},
      {"measurement": "t1/2", "setting": "[8]", "result": 7.91, "unit": "h"},
      {"measurement": "AUC0-12", "setting": "[9]", "result": 902, "unit": "ng·h/mL"},
      {"measurement": "AUC0-24", "setting": "[9]", "result": 1990, "unit": "ng·h/mL"},
      {"measurement": "AUC0-24/D", "setting": "[9]", "result": "9.93 (hr*ng/ml)/mg"},
      {"measurement": "AUC0-∞", "setting": "[9]", "result": 1730, "unit": "ng·h/mL"},
      {"measurement": "C12", "setting": "[9]", "result": 62.3, "unit": "ng/mL"},
      {"measurement": "Cmax/D", "setting": "[9]", "result": "1.12 (ng/ml)/mg"},
      {"measurement": "t1/2", "setting": "[9]", "result": 8.10, "unit": "h"},
      {"measurement": "RAUC0-12", "setting": "[10]", "result": 2.09},
      {"measurement": "RCmax", "setting": "[10]", "result": 1.90},
      {"measurement": "RAUC0-12", "setting": "[11]", "result": 2.23},
      {"measurement": "RCmax", "setting": "[11]", "result": 1.98},
      {"measurement": "AUC0-12", "setting": "[12]", "result": 900, "unit": "ng·h/mL"},
      {"measurement": "AUC0-24", "setting": "[12]", "result": 1220, "unit": "ng·h/mL"},
      {"measurement": "AUC0-∞", "setting": "[12]", "result": 1780, "unit": "ng·h/mL"},
      {"measurement": "C12", "setting": "[12]", "result": 35.4, "unit": "ng/mL"},
      {"measurement": "C24", "setting": "[12]", "result": 19.3, "unit": "ng/mL"},
      {"measurement": "Cmax", "setting": "[12]", "result": 155, "unit": "ng/mL"},
      {"measurement": "Cmax/D", "setting": "[12]", "result": "1.55 (ng/ml)/mg"},
      {"measurement": "t1/2", "setting": "[12]", "result": 19.0, "unit": "h"},
      {"measurement": "AUC0-12", "setting": "[13]", "result": 943, "unit": "ng·h/mL"},
      {"measurement": "AUC0-24", "setting": "[13]", "result": 1270, "unit": "ng·h/mL"},
      {"measurement": "AUC0-∞", "setting": "[13]", "result": 1830, "unit": "ng·h/mL"},
      {"measurement": "C12", "setting": "[13]", "result": 36.4, "unit": "ng/mL"},
      {"measurement": "C24", "setting": "[13]", "result": 19.6, "unit": "ng/mL"},
      {"measurement": "Cmax", "setting": "[13]", "result": 168, "unit": "ng/mL"},
      {"measurement": "Cmax/D", "setting": "[13]", "result": "1.68 (ng/ml)/mg"},
      {"measurement": "t1/2", "setting": "[13]", "result": 19.6, "unit": "h"},
      {"measurement": "AUC0-12", "setting": "[14]", "result": 1620, "unit": "ng·h/mL"},
      {"measurement": "AUC0-∞", "setting": "[14]", "result": 1980, "unit": "ng·h/mL"},
      {"measurement": "C12", "setting": "[14]", "result": 56.6, "unit": "ng/mL"},
      {"measurement": "Cmax", "setting": "[14]", "result": 336, "unit": "ng/mL"},
      {"measurement": "Cmax/D", "setting": "[14]", "result": "1.68 (ng/ml)/mg"},
      {"measurement": "t1/2", "setting": "[14]", "result": 4.41, "unit": "h"},
      {"measurement": "AUC0-12", "setting": "[15]", "result": 1700, "unit": "ng·h/mL"},
      {"measurement": "C12", "setting": "[15]", "result": 60.7, "unit": "ng/mL"},
      {"measurement": "Cmax", "setting": "[15]", "result": 357, "unit": "ng/mL"},
      {"measurement": "Cmax/D", "setting": "[15]", "result": "1.79 (ng/ml)/mg"},
      {"measurement": "t1/2", "setting": "[15]", "result": 4.49, "unit": "h"},
      {"measurement": "AUC0-12", "setting": "[16]", "result": 1910, "unit": "ng·h/mL"},
      {"measurement": "AUC0-24", "setting": "[16]", "result": 3540, "unit": "ng·h/mL"},
      {"measurement": "AUC0-24/D", "setting": "[16]", "result": "8.85 (hr*ng/ml)/mg"},
      {"measurement": "AUC0-∞", "setting": "[16]", "result": 2640, "unit": "ng·h/mL"},
      {"measurement": "C12", "setting": "[16]", "result": 102, "unit": "ng/mL"},
      {"measurement": "Cmax", "setting": "[16]", "result": 307, "unit": "ng/mL"},
      {"measurement": "Cmax/D", "setting": "[16]", "result": "1.54 (ng/ml)/mg"}
    ]}
  ]
}
